The results in this text go back to patent US20110178053A1, “AZACARBOLINE DERIVATIVES, PREPARATION METHOD THEREOF AND THERAPEUTIC USE OF SAME” (SANOFI-AVENTIS, priority 2008, published 2011).

The target in assay [1] is PLK1 (Homo sapiens, UniProt P53350). As to the kind of experiment: PLK1 biochemical inhibition.
Assay [2] has as its system KG-1a. In words: Cell viability assay (CellTiter-Blue), KG-1a. Format: cell-based. Conditions: Homo sapiens; KG-1a cells; cell proliferation/viability; read-out: EC50 KG-1a μM (leukaemia). From the text: (§1) The representative compounds of the invention are also screened as regards their effects on cell proliferation and viability using a variety of human tumour cell lines, which are representative of various pathological indications. These cell lines include: • Models of haematological cancers: • TF-1 (acute myelogenic leukaemia; AML M6 at the time of diagnosis); • KG-1 (AML; erythroleukaemia evolving into AML); • KG-1a (AML; sub-clone derived from immature KG-1); • EOL-1 (AML; eosinophilic leukaemia); • PL-21 (AML; M3); • ML-2 (AML; T-NHL evolving into T-ALL evolving into AML M4); • HL-60 (AML, M3); • Kasumi-1 (AML); • GDM-1 (AML); • K-562 (CML—chronic myelogenic leukaemia; blastic crisis); • JURL-MK1 (CML; blastic crisis); • DND-41 (T-ALL—-cell acute lymphoblastic leukaemia); • Jurkat (T-ALL); NALM-6 (B-ALL—B-cell ALL); • CEM (ALL; lymphosarcoma evolving into ALL); • Jeko-1 (B-NHL—B-cell non-Hodgkin lymphoma; mantle-cell lymphoma derived from a variant with large cells as a leukaemic transformation); • WSU-DLCL2 (B-NHL; large B-cell diffuse lymphoma); • RL (B-NHL; undifferentiated diffuse); • OCI-Ly10 (B-NHL); • DoHH-2 (B-NHL); • RPMI-8226 (MM—multiple myeloma); • JVM-2 (B-CLL—B-cell chronic lymphocytic leukaemia); and • JVM-3 (B-CLL) • MV4-11 (AML) • MOLM13 (AML). • Solid tumour models: • HCT-116 (bowel cancer); • HT-29 (bowel cancer); • HC-15 (bowel cancer); • H460 (lung cancer; non-small-cell lung cancer); • A375 (melanoma); • B16F10 (melanoma); • MDA-A1 (breast cancer); • MDA-MB231 (breast cancer); • MDA-MB231 adr (breast cancer); • PANC-1 (pancreatic cancer); and • PC-3 (prostate cancer).
(§2) In order to measure the viability, the tumour cells are incubated in a 96-well or 384-well format for 48, 72 or 96 hours, preferably 72 hours, with a compound of the invention at dilutions of a factor 3 with, in general, nine doses in total, the highest dose being equal to 10 μM or 30 μM. The cell viability is evaluated by adding CellTiter-Blue® (Promega, Madison, Wis., United States) for 4 hours and end-point readings are taken using a SpectraMax Genmini EM (Molecular Devices, Sunnyvale, Calif., United States). The CellTiter-Blue® cell viability assay measures the ability of the cells in culture to reduce resazurin to resorufin, the fluorescence signal intensity being directly proportional to the number of live cells.

For assay [3], the system named is EOL-1. As to the kind of experiment: Cell viability assay (CellTiter-Blue), EOL-1. The note with it: Homo sapiens, EOL1, read-out: EC50 EOL-1 μM (lymphoma); EOL-1 cells; cell proliferation/viability. The format is cell-based.
From the text: as §1, §2

The target in assay [4] is T1, Pim-3 (Homo sapiens, UniProt Q86V86).
T1 construct: His6-labelled recombinant full-length human Pim-1, Pim-2 or Pim-3 protein; His6; made in house
In words: TR-FRET assay, Pim-3 kinase (phosphorylation of Bad Ser112). Format: biochemical. Conditions: TR-FRET; ATP 40 μM; read-out: IC50 Pim3. In short, it runs like this: (§3)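 Recombinant His6-tagged full-length human Pim-1, Pim-2 or Pim-3 phosphorylates His6-tagged full-length human Bad at 40 μM ATP (apparent KM). Phospho-Ser112 is detected by TR-FRET between Eu-labelled anti-phosphoBad and APC-labelled anti-His6 (665/615 nm ratio); 10-point duplicate series, top typically 30 μM, IC50 from 4-parameter logistic fit.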

For assay [5], the target named is T2, Pim-2 (Homo sapiens, UniProt Q9P1W9).
T2 construct: His6-labelled recombinant full-length human Pim-1, Pim-2 or Pim-3 protein; His6; made in house
In words: TR-FRET assay, Pim-2 kinase (phosphorylation of Bad Ser112). The format is biochemical. Conditions: TR-FRET; ATP 40 μM; read-out: IC50 Pim2. In short, it runs like this: as §3
On the technique in general: TR-FRET usually uses a lanthanide donor and a delayed reading to cut background.

For assay [6], the target named is T3, Pim-1 (Homo sapiens, UniProt P11309).
T3 construct: His6-labelled recombinant full-length human Pim-1, Pim-2 or Pim-3 protein; His6; made in house
In words: TR-FRET assay, Pim-1 kinase (phosphorylation of Bad Ser112). Format: biochemical. The note with it: TR-FRET; ATP 40 μM; read-out: IC50 Pim1. In short, it runs like this: as §3

For assay [7], the system named is MV4-11. As to the kind of experiment: Cell viability assay (CellTiter-Blue), MV4-11. The format is cell-based. The note with it: Homo sapiens; MV4-11 cells; cell proliferation/viability; read-out: IC50 MV4-11 μM (myeloma).
From the text: as §1, §2

In assay [8] the test system is H460. In words: Cell viability assay (CellTiter-Blue), H460. Format: cell-based. The note with it: Homo sapiens, NCI-H460; H460 cells; cell proliferation/viability; read-out: EC50 H460 μM (lung). The protocol:
(§4) The representative compounds of the invention are also screened as regards their effects on cell proliferation and viability using a variety of human tumour cell lines, which are representative of various pathological indications. […]
as §2

The subject of assay [9] is PI3K. As to the kind of experiment: PI3K biochemical inhibition.
In assay [10] the test system is B16F10. As to the kind of experiment: Cell viability assay (CellTiter-Blue), B16F10. Format: cell-based, human. Conditions: Mus musculus, B16-F10; B16F10 cells; cell proliferation/viability; read-out: EC50 B16F10 μM (melanoma). As to the method: as §4, §2
(The colour change of resazurin is a common sign of viable cells or microbes.)

For assay [11], the system named is HCT116. In words: Cell viability assay (CellTiter-Blue), HCT116. Format: cell-based. Conditions: Homo sapiens, HCT-116; HCT116 cells; cell proliferation/viability; read-out: EC50 HCT116 μM (bowel). The protocol: as §4, §2
Assay [12] has as its system MOLM-13. In words: Cell viability assay (CellTiter-Blue), MOLM-13. Format: cell-based. Conditions: Homo sapiens; MOLM-13 cells; cell proliferation/viability; read-out: IC50 MOLM-13 μM (myeloma).
From the text: as §1, §2

Chain of PLK1 (P53350 whole entry, species assumed): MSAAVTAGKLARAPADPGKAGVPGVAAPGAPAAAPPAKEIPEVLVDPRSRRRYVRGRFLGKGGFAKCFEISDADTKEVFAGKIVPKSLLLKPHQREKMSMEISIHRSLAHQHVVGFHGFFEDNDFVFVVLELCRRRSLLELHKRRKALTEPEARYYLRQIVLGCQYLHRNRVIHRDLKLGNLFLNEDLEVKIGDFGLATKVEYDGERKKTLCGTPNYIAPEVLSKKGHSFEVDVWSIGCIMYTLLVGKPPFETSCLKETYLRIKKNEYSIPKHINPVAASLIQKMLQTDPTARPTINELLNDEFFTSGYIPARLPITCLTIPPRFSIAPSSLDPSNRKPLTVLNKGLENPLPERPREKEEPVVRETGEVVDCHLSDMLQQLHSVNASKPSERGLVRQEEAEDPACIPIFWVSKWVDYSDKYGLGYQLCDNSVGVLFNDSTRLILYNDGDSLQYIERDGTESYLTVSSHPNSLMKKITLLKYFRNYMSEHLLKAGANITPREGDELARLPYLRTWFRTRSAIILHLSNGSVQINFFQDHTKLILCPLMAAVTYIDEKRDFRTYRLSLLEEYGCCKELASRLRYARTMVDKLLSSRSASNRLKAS
T2 sequence (Q9P1W9 whole entry): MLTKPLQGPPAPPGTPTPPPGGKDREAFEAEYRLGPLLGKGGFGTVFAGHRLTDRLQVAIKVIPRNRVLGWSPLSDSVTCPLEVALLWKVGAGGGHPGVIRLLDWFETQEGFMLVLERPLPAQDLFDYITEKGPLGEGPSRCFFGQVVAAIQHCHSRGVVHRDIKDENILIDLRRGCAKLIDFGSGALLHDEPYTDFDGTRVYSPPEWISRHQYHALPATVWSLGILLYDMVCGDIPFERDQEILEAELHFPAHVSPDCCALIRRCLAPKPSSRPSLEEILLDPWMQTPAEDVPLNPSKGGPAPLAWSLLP
T3 sequence (P11309 whole entry): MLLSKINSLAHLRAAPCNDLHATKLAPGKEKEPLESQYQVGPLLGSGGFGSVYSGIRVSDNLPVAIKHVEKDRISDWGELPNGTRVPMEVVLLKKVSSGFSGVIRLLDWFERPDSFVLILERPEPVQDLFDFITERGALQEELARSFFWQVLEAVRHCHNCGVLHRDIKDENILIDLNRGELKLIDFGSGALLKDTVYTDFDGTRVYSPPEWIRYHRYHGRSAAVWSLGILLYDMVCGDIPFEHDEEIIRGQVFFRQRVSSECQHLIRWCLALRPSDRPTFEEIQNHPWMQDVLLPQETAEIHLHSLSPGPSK

For the compound `c1cncc(-c2cc3c(cn2)[nH]c2ncccc23)c1` [Example 1, 6-pyrid-3-yl-9H-pyrrolo[2,3-b:5,4-c′]dipyridine], the IC50 (as a rule, the concentration at which inhibition is half-maximal) in [1] is 100 to 1000 nM; in assay [4], 100 to 1000 nM; in [5], 1000 to 5000 nM; in assay [6] it was 1 to 100 nM; in assay [7] it was 1000 to 5000 nM. For the same compound, the EC50 (as a rule, the concentration at which the effect is half-maximal) in assay [2] fell in the range of 1 to 5 µM; in assay [3], 1000 to 5000 nM.
On to `CC(C)(C)OC(=O)c1cnc2[nH]c3cnc(-c4cccnc4)cc3c2c1` [Example 5, 2-methylpropan-2-yl 6-(pyrid-3-yl)-9H-pyrrolo[2,3-b:5,4-c′]dipyridine-3-carboxylate], for which the IC50 was above 5000 nM in assay [1]; 100 to 1000 nM in assay [4]; above 5000 nM in assay [5]; 1 to 100 nM in [6]; 100 to 1000 nM in assay [7]. In addition, the values for the EC50 in assay [2] and in assay [3] were 0.1 to 1 µM and 100 to 1000 nM, respectively.
On to `CCCN(C)c1cnc2[nH]c3cnc(-c4cccnc4)cc3c2c1` [Example 10, N-methyl-N-propyl-6-(pyrid-3-yl)-9H-pyrrolo[2,3-b:5,4-c′]dipyrid-3-amine], for which the IC50 lay in the range of 100 to 1000 nM in assay [1]; 1 to 100 nM in assay [4]; 1000 to 5000 nM in [5]; 1 to 100 nM in [6]; 100 to 1000 nM in [7]. Further, the EC50 in [2] was 0.1 to 1 µM; in assay [3], 100 to 1000 nM.
With `c1cncc(-c2cc3c(cn2)[nH]c2ncc(N4CCOCC4)cc23)c1` [Example 14, 3-(morpholin-4-yl)-6-(pyrid-3-yl)-9H-pyrrolo[2,3-b:5,4-c′]dipyridine], the IC50 in [1] was above 5000 nM; in assay [4], 1 to 100 nM; in [5] it was 1000 to 5000 nM; in assay [6], 1 to 100 nM; in [7] it was 100 to 1000 nM. In addition, the EC50 in [2] lay within 1 to 5 µM; in assay [3] it was 100 to 1000 nM.
For the compound `CC(C)(CO)COC(=O)c1cnc2[nH]c3cnc(-c4cccnc4)cc3c2c1` [Example 15, 3-hydroxy-2,2-dimethylpropyl 6-(pyrid-3-yl)-9H-pyrrolo[2,3-b:5,4-c′]-dipyridine-3-carboxylate], the IC50 was above 5000 nM in assay [1]; 1 to 100 nM in [4]; 100 to 1000 nM in assay [5]; 1 to 100 nM in assay [6]; 100 to 1000 nM in assay [7]. The EC50 fell in the range of 0.1 to 1 µM in [2] and 100 to 1000 nM in assay [3].
In the case of `CS(=O)(=O)Nc1ccc(-c2c(F)cnc3[nH]c4cnc(-c5cccnc5)cc4c23)cc1` [Example 22, N-[4-(3-Fluoro-6-(pyrid-3-yl)-9H-pyrrolo[2,3-b:5,4-c′]dipyrid-4-yl)-phenyl]methanesulfon-amide], the EC50 in [8], in assay [10], in assay [11] and in [3] was 1 to 100 nM throughout. Also, the IC50 fell in the range of 1 to 100 nM in assay [1]; 100 to 1000 nM in assay [9]; 1 to 100 nM in [4]; 100 to 1000 nM in assay [5]; 1 to 100 nM in assay [6]; 1 to 100 nM in assay [12]. For the same compound, the IC50 in assay [7] fell in the range of 1 to 100 nM.
On to `Cn1cc(-c2cc3c(cn2)[nH]c2ncccc23)cn1` [Example 39, 6-(1-Methyl-1H-pyrazol-4-yl)-9H-pyrrolo[2,3-b:5,4-c′]dipyridine], for which the IC50 was 1000 to 5000 nM in [1]; 100 to 1000 nM in assay [4]; 1000 to 5000 nM in assay [5]; 1 to 100 nM in assay [6]; 1000 to 5000 nM in assay [12]; 1000 to 5000 nM in [7]. The values for the EC50 in assay [2] and in assay [3] were 0.1 to 1 µM and 100 to 1000 nM, respectively.
Turning to `COc1cnc2[nH]c3cnc(-c4cccnc4)cc3c2c1-c1ccc(NS(C)(=O)=O)cc1` [Example 44, N-[4-(3-methoxy-6-(pyrid-3-yl)-9H-pyrrolo[2,3-b:5,4-c′]dipyrid-4-yl)phenyl]methane-sulfonamide], the IC50 in assay [1], in [9], in [4], in [5], in assay [6] and in [12] was 1 to 100 nM throughout. Moreover, the IC50 in [7] was in the range of 1 to 100 nM. The EC50 in assay [3] fell in the range of 1 to 100 nM.
Consider `CCN(CC)CCN1CCN(c2c(F)cnc3[nH]c4cnc(-c5cccnc5)cc4c23)CC1` [Example 79, N,N-diethyl-2-{4-[3-fluoro-6-(pyrid-3-yl)-9H-pyrrolo[2,3-b:5,4-c′]dipyrid-4-yl]-piperazin-1-yl}-ethanamine], for which the IC50 in assay [1] lay in the range of 100 to 1000 nM; in assay [9] it was 1000 to 5000 nM; in assay [4] it was 1 to 100 nM; in [5], 1000 to 5000 nM; in assay [6], 1 to 100 nM.
On to `Fc1cnc2[nH]c3cnc(-c4cccnc4)cc3c2c1N1CCN(CCCN2CCCCC2)CC1` [Example 86, 3-fluoro-4-{4-[3-(piperid-1-yl)propyl]piperazin-1-yl}-6-(pyrid-3-yl)-9H-pyrrolo-[2,3-b:5,4-c′]-dipyridine], for which the IC50 in assay [1] was 100 to 1000 nM; in assay [9], above 5000 nM; in assay [4], 1 to 100 nM; in assay [5], 100 to 1000 nM; in [6], 1 to 100 nM; in assay [7], 100 to 1000 nM. The EC50 in assay [3] lay in the range of 100 to 1000 nM.
